Assay results from patent US6875758B2, “Method of treating hyperlipidemic and hyperglycemic conditions in mammals using pregnadienols and pregnadienones” (Council of Scientific & Industrial Research, priority 1999, dated 2005).
Several values for one entry are separate records, joined by “and”; a condition that tells them apart may be missing. Equal values may be shown once.

Tests used:
[1] = test system: isoproterneol induced myocardial necrosis in rat; test: Isoproterneol induced myocardial necrosis in rats; assay type: in vivo; conditions: isoproterneol 85 mg/kg + drug 25 mg/kg p.o.
Source text: The underlying cause of myocardial infarction is believed to be the progressive deposition of lipids and fibrotic material into the arterial wall. These pregnadienols and pregnadienous also provided cardiac protection as assessed in isoproterneol induced myocardial necrosis in rat model, which produces myocardial infarction due to an increased blood pressure and heart rate.

[2] = test system: hyperlipidemic male albino rabbits; test: Hypolipidemic activity in cholesterol fed hyperlipidemic rabbits (90 days); assay type: in vivo
Protocol: Effect of 3β-Hydroxypregna-5,16-dien-20-one (2) was studied on hypercholesterolemic albino rabbits. Twelve male albino rabbits (approx 1.5-2 kg) on a stock diet were made hyperlipidemic by feeding daily cholesterol 0.5 g/kg in 2 ml of groundnut oil for 45 days and then blood was drawn from the marginal vein in the ear of rabbits for serum cholesterol and triglycerides estimation.
Two controlled experiments were carried out for a period of three months. In one set of experiments, the control group received 0.5 g/kg of cholesterol for 90 days and 3β-Hydroxypregna-5,16-dien-20-one (2) in dose of 100 mg/kg and 50 mg/kg while in control group (given only cholesterol) a massive rise of serum cholesterol and triglycerides were seen after 90 days, the addition of 3β-Hydroxypregna-5,16dien-20-one (2) at 50 and 100 mg/kg doses kept the rise well under control. The percentage decrease at 100 mg dose was 28% at 30 days to 52% at 90 days for cholesterol and 45 to 81% for triglycerides. In the 50 mg/kg dose group the decrease percentage ranged from 40% at 30 days to 50% at 90 days for cholesterol and 45% at 30 days to 75% at 90 days for triglyceride (Table6)

Rhesus monkeys = test: Hypolipidemic activity in Rhesus monkeys; assay type: in vivo; conditions: for S. Triglycerides % Fall: day 60 vs day 0; for HDL-Cholesterol % Change / LDL-Cholesterol % Fall / S. Cholesterol % Fall: day 90 vs day 0
Protocol: In Rhesus monkeys: 3β-Hydroxypregna-5,16-dien-20one (2) was administered orally daily for 90 days in doses of 62.5, 125 or 650 mg/kg to different group of animals. Significant decrease in serum cholesterol was observed (45-52%).

normal rats = test: Hypolipidemic activity in normal rats; assay type: in vivo; conditions: 50 mg/kg
Protocol: In normal rats, 3β-hydroxypregna-5,16-dien-20one (2), at 50 mg/kg produced a significant lowering of serum cholesterol and triglycerides as describe in Table-3 below.

hyperlipidemic rabbits = test: Hypolipidemic effect in hyperlipidemic rabbits (120 days experiment); assay type: in vivo; set-up: Serum Triglycerides: unit not given here; conditions: 100 mg/kg
[3] = test system: endometrial proliferation; test: Clauberg assay, endometrial proliferation on McPhail scale; assay type: in vivo; conditions: 200 mg/kg dose
Protocol: The progestational activity was also tested in vivo by Clauberg assay method. The degree of endometrial proliferation was estimated on the McPhail scale where 3′ or 4′ was considered as a full progestational effect.

glucose loaded rats = test: Hypoglycemic activity in glucose loaded rats; assay type: in vivo, albino rats (Charles Foster strain); conditions: for Blood Glucose Level: 100 mg/kg p.o. + glucose 2.0 g/kg; for % inhibition compared to control (blood glucose): 100 mg/kg
Protocol: The experiments were carried out with albino rats (Charles Foster strain) of either sex weighing 150-160 g. They were fed on laboratory diet prepared by M/s Lipton India Ltd. and maintained under 12 hr. light/dark cycle at 25±2° C.
The animals were divided into eight groups, each of six rats; group I was given 1% gum acacia (0.1 ml/100 g body weight) intragastrically (p.o.) and the group II were given 3β-hydroxypregna-5,16-dien-20-one (2) in 1% gum acacia. Animals of group III were given the standard antidiabetic drug, tolbutamide in the similar fashion. 2.0 g/kg glucose was given p.o. to all the rats along with the vehicle/Compound/Standard antidiabetic drug. Blood samples were taken from retroorbital plexus at periodic intervals. Glucose levels in the blood samples were measured by glucose oxidase method [Bergmeyer and Benut, 1963 cited in “Methods of Enzymatic Analysis” ed. H. Bergmeyer, Verlag Chemie, GmBH, Weinheim, Beroster, pp123, Academic press, New York].

[4] = 50 mg/kg + cholesterol 0.5 g/kg, day 30
[5] = 50 mg/kg + cholesterol 0.5 g/kg, day 60
[6] = 50 mg/kg + cholesterol 0.5 g/kg, day 90
[7] = 100 mg/kg + cholesterol 0.5 g/kg, day 30
[8] = 100 mg/kg + cholesterol 0.5 g/kg, day 60
[9] = 100 mg/kg + cholesterol 0.5 g/kg, day 90
[10] = 62.5, 125 or 650 mg/kg orally daily for 90 days

CC(=O)C1=CC[C@H]2[C@@H]3CC=C4C[C@@H](O)CC[C@]4(C)[C@H]3CC[C@]12C [Compound 2, 3β-Hydroxypregna-5,16-dien-20-one]
Heart Ca. - ATPase % Protection [1]: 30.2% | Heart Glycogen % Protection [1]: 25.1% | Heart Lipid peroxide % Protection [1]: 72.6% | Heart Phospholipase % Protection [1]: 74.2% | Serum Alkaline Phosphatase % Protection [1]: 24.0% | Serum CPK % Protection [1]: 35.7% | Serum GOT % Protection [1]: 27.0% | Serum GPT % Protection [1]: 22.7% | S. Cholesterol [2, 4]: 190.5 mg % | S. Triglycerides [2, 4]: 79.5 mg % | S. Cholesterol [2, 5]: 305.5 mg % | S. Triglycerides [2, 5]: 67.0 mg % | S. Cholesterol [2, 6]: 660.3 mg % | S. Triglycerides [2, 6]: 56.5 mg % | S. Cholesterol % Decrease vs cholesterol control ([2]; 50 mg/kg, day 30): 40% | S. Triglycerides % Decrease vs cholesterol control ([2]; 50 mg/kg, day 30): 45% | S. Cholesterol % Decrease vs cholesterol control ([2]; 50 mg/kg, day 60): 43% | S. Triglycerides % Decrease vs cholesterol control ([2]; 50 mg/kg, day 60): 64% | S. Cholesterol % Decrease vs cholesterol control ([2]; 50 mg/kg, day 90): 50% and 51% | S. Triglycerides % Decrease vs cholesterol control ([2]; 50 mg/kg, day 90): 75% and 76% | S. Cholesterol [2, 7]: 213.3 mg % | S. Triglycerides [2, 7]: 79.0 mg % | S. Cholesterol [2, 8]: 309.3 mg % | S. Triglycerides [2, 8]: 54.0 mg % | S. Cholesterol [2, 9]: 633.7 mg % | S. Triglycerides [2, 9]: 44.2 mg % | S. Cholesterol % Decrease vs cholesterol control ([2]; 100 mg/kg, day 30): 28% | S. Triglycerides % Decrease vs cholesterol control ([2]; 100 mg/kg, day 30): 45% and 46% | S. Cholesterol % Decrease vs cholesterol control ([2]; 100 mg/kg, day 60): 42% | S. Triglycerides % Decrease vs cholesterol control ([2]; 100 mg/kg, day 60): 64% | S. Cholesterol % Decrease vs cholesterol control ([2]; 100 mg/kg, day 90): 52% and 53% | S. Triglycerides % Decrease vs cholesterol control ([2]; 100 mg/kg, day 90): 81% | S. Cholesterol (Rhesus monkeys; 62.5 mg/kg orally daily, day 0): 156.8 ± 23.0 mg/dL | S. Triglycerides (Rhesus monkeys; 62.5 mg/kg orally daily, day 0): 77.5 ± 7.0 mg/dL | S. Triglycerides (Rhesus monkeys; 62.5 mg/kg orally daily, day 60): 66.3 ± 6.9 mg/dL | S. Cholesterol (Rhesus monkeys; 62.5 mg/kg orally daily, day 90): 83.3 ± 8.5 mg/dL | HDL-Cholesterol (Rhesus monkeys; 62.5 mg/kg, day 0): 50.0 ± 4.5 mg/dL | LDL-Cholesterol (Rhesus monkeys; 62.5 mg/kg, day 0): 91.8 ± 27.0 mg/dL | S. Triglycerides % Fall (Rhesus monkeys; 62.5 mg/kg): 14% | HDL-Cholesterol (Rhesus monkeys; 62.5 mg/kg, day 90): 45.0 ± 2.5 mg/dL | LDL-Cholesterol (Rhesus monkeys; 62.5 mg/kg, day 90): 24.3 ± 8.0 mg/dL | HDL-Cholesterol % Change (Rhesus monkeys; 62.5 mg/kg): −8% | LDL-Cholesterol % Fall (Rhesus monkeys; 62.5 mg/kg): 75% | S. Cholesterol % Fall (Rhesus monkeys; 62.5 mg/kg): 47% | S. Cholesterol (Rhesus monkeys; 125 mg/kg orally daily, day 0): 133.3 ± 8.5 mg/dL | S. Triglycerides (Rhesus monkeys; 125 mg/kg orally daily, day 0): 69.8 ± 9.9 mg/dL | S. Triglycerides (Rhesus monkeys; 125 mg/kg orally daily, day 60): 60.0 ± 2.9 mg/dL | S. Cholesterol (Rhesus monkeys; 125 mg/kg orally daily, day 90): 65.8 ± 2.2 mg/dL | HDL-Cholesterol (Rhesus monkeys; 125 mg/kg, day 0): 46.3 ± 2.0 mg/dL | LDL-Cholesterol (Rhesus monkeys; 125 mg/kg, day 0): 63.5 ± 7.4 mg/dL | S. Triglycerides % Fall (Rhesus monkeys; 125 mg/kg): 13% | HDL-Cholesterol (Rhesus monkeys; 125 mg/kg, day 90): 50.8 ± 0.5 mg/dL | LDL-Cholesterol (Rhesus monkeys; 125 mg/kg, day 90): 4.6 ± 0.9 mg/dL | HDL-Cholesterol % Change (Rhesus monkeys; 125 mg/kg): +10% | LDL-Cholesterol % Fall (Rhesus monkeys; 125 mg/kg): 90% | S. Cholesterol % Fall (Rhesus monkeys; 125 mg/kg): 50% | S. Cholesterol (Rhesus monkeys; 650 mg/kg orally daily, day 0): 132.8 ± 6.4 mg/dL | S. Triglycerides (Rhesus monkeys; 650 mg/kg orally daily, day 0): 90.5 ± 3.9 mg/dL | S. Triglycerides (Rhesus monkeys; 650 mg/kg orally daily, day 60): 58.5 ± 3.8 mg/dL | S. Cholesterol (Rhesus monkeys; 650 mg/kg orally daily, day 90): 63.3 ± 2.3 mg/dL | HDL-Cholesterol (Rhesus monkeys; 650 mg/kg, day 0): 39.3 ± 1.3 mg/dL | LDL-Cholesterol (Rhesus monkeys; 650 mg/kg, day 0): 72.7 ± 8.4 mg/dL | S. Triglycerides % Fall (Rhesus monkeys; 650 mg/kg): 36% | HDL-Cholesterol (Rhesus monkeys; 650 mg/kg, day 90): 41.8 ± 0.9 mg/dL | LDL-Cholesterol (Rhesus monkeys; 650 mg/kg, day 90): 13.1 ± 0.7 mg/dL | HDL-Cholesterol % Change (Rhesus monkeys; 650 mg/kg): +6% | LDL-Cholesterol % Fall (Rhesus monkeys; 650 mg/kg): 82% | S. Cholesterol % Fall (Rhesus monkeys; 650 mg/kg): 53% | changes in HDL-cholesterol (Rhesus monkeys; [10]): not significant | decrease in low density lipoprotein (Rhesus monkeys; [10]): 75-90% | decrease in serum cholesterol (Rhesus monkeys; [10]): 45-52% | Serum Cholesterol (normal rats; 0 Days): 71.5 ± 1.8 mg % | Serum Cholesterol (normal rats; 30 Days): 43.2 ± 2.9 mg % | Serum Cholesterol % Fall (normal rats; 30 Days): 40% | Serum Triglycerides (normal rats; 30 Days): 42.0 ± 2.8 mg % | Serum Triglycerides % Fall compared to control (normal rats; 30 Days): 35% | Serum Cholesterol % Decrease (Compared with HFD) (hyperlipidemic rabbits): 74% | Serum Triglycerides % Decrease (Compared with HFD) (hyperlipidemic rabbits): 61% | Serum Cholesterol (hyperlipidemic rabbits; HFD): 350.0 ± 28.1 mg/dL | Serum Triglycerides (hyperlipidemic rabbits; HFD): 74.2 ± 10.3 | progestational activity [3]: did not exhibit any activity | Maximum Blood Glucose Change (glucose loaded rats; 100 mg/kg p.o. + glucose): −18.7% | Blood Glucose Level (glucose loaded rats; 0 min): 42.43 ± 1.64 mg/dL | Blood Glucose Level (glucose loaded rats; 30 min): 76.15 ± 6.07 mg/dL | Blood Glucose Level (glucose loaded rats; 60 min): 56.06 ± 4.65 mg/dL | Blood Glucose Level (glucose loaded rats; 90 min): 55.06 ± 2.61 mg/dL | Blood Glucose Level (glucose loaded rats; 120 min): 49.59 ± 1.66 mg/dL | % inhibition compared to control (blood glucose) (glucose loaded rats; 30 min): (48) % | % inhibition compared to control (blood glucose) (glucose loaded rats; 60 min): (55) % | % inhibition compared to control (blood glucose) (glucose loaded rats; 90 min): (54) % | % inhibition compared to control (blood glucose) (glucose loaded rats; 120 min): (34) %
